According to publication PMC4377985, “Cytotoxic and Antibacterial Angucycline- and Prodigiosin- Analogues from the Deep-Sea Derived Streptomyces sp. SCSIO 11594” (Marine Drugs, 2015):
Values after ≈ are worked out from the molar mass of the structure shown. Where two headings read alike, the source gives them in different places.

Assays:
[1] = test system: human hepatocarcinoma cancer cell line HepG2; assay: in vitro cytotoxicity, MTT; assay type: cell-based
Experimental: (§1) The anticancer activity of the related natural products has been described in a number of literatures, and the structure activity relationships of related synthetic natural products have been reported.
(§2) IC50 values were calculated using GraphPad Prism 5 software. All data were obtained in triplicate and are presented as means ± SD.

[2] = in vitro cytotoxicity, MTT; assay type: cell-based; settings: human, normal hepatic cell line HL7702, MTT, n = 3, mean ± SD
Experimental: as §1, §2

[3] = test system: human lung cancer cell line A549; assay: in vitro cytotoxicity, MTT; assay type: cell-based
Experimental: as §1, §2

[4] = test system: human nasopharyngeal carcinoma cell line CNE2; assay: in vitro cytotoxicity, MTT; assay type: cell-based
Experimental: as §1, §2

[5] = test system: human breast adenocarcinoma cell line MCF-7; assay: in vitro cytotoxicity, MTT; assay type: cell-based
Experimental: as §1, §2

[6] = test system: four human cancer cell lines A549, CNE2, HepG2, MCF-7; assay: in vitro cytotoxicity, MTT, panel of four cancer cell lines; assay type: cell-based; settings: for estimated therapeutic ratio (TR): comparison of tumor cell-derived IC50 values with HL7702 IC50; for fold more cytotoxic/potent than the positive control cisplatin: relative to cisplatin, cancer cell lines
Experimental: Compounds 1–5 were tested for potential in vitro cytotoxicity against human lung cancer cell line A549, human nasopharyngeal carcinoma cell line CNE2, human breast adenocarcinoma cell line MCF-7, human hepatocarcinoma cancer cell line HepG2, and the normal hepatic cell line HL7702. […] The anticancer activity of the related natural products has been described in a number of literatures, and the structure activity relationships of related synthetic natural products have been reported.
Compounds 1–5 were evaluated for cytotoxic activity using four human cancer cell lines, A549, CNE2, HepG2, MCF-7, one normal hepatic cell line HL7702 and previously reported MTT methodologies. IC50 values were calculated using GraphPad Prism 5 software. All data were obtained in triplicate and are presented as means ± SD. Cisplatin was used as a positive control.

[7] = test system: MRSE shhs-E1; assay: antibacterial activity, dilution susceptibility test; assay type: cell-based, methicillin-resistant Staphylococcus epidermidis; settings: Staphylococcus epidermidis
Experimental: (§3) The antibacterial activities of compounds 1–5 were evaluated using MRSE shhs-E1, methicillin-resistant Staphylococcus aureus (MRSA) shhs-A1, Staphylococcus aureus ATCC 29213, Enterococcus faecalis ATCC29212, Escherichia coli ATCC 25922, Micrococcus luteus, and multidrug resistant Pseudomonas aeruginosa.
(§4) The antibacterial activities of compounds 1–5 were assessed using seven strains of pathogenic bacteria including MRSE shhs-E1, MRSA shhs-A1, Staphylococcus aureus ATCC 29213, Enterococcus faecalis ATCC29212, Escherichia coli ATCC 25922, Micrococcus luteus, and multidrug resistant Pseudomonas aeruginosa. Dilution antimicrobial susceptibility tests for aerobic bacteria were carried out as previously reported.

[8] = test system: Escherichia coli ATCC 25922; assay: as above; assay type: cell-based; settings: ATCC25922
Experimental: as §3, §4

[9] = test system: Staphylococcus aureus ATCC 29213; assay: as above; assay type: cell-based; settings: ATCC29213
Experimental: as §3, §4

[10] = test system: Enterococcus faecalis ATCC29212; assay: as above; assay type: cell-based
Experimental: as §3, §4

[11] = test system: multidrug resistant Pseudomonas aeruginosa; assay: as above; assay type: cell-based
Experimental: as §3, §4

[12] = test system: Micrococcus luteus; assay: as above; assay type: cell-based
Experimental: as §3, §4

[13] = test system: MRSA shhs-A1; assay: as above; assay type: cell-based, methicillin-resistant Staphylococcus aureus; settings: Staphylococcus aureus
Experimental: as §3, §4

[14] = HepG2, MTT, n = 3, mean ± SD, read-out: in vitro cytotoxicity IC50, HepG2
[15] = A549, MTT, n = 3, mean ± SD, read-out: in vitro cytotoxicity IC50, A549
[16] = CNE-2, CNE2, MTT, n = 3, mean ± SD, read-out: in vitro cytotoxicity IC50, CNE2
[17] = MCF7, MCF-7, MTT, n = 3, mean ± SD, read-out: in vitro cytotoxicity IC50, MCF-7

Structure (SMILES) | IC50 [1, 14] | IC50 ([2]; HL7702 normal hepatic cells) | IC50 [3, 15] | IC50 [4, 16] | IC50 [5, 17] | estimated therapeutic ratio (TR) [6] | fold more cytotoxic/potent than the positive control cisplatin [6] | MIC [8] | MIC [9] | MIC [10] | MIC [11] | MIC [12] | MIC [13] | MIC ([7]; MRSE) | other results
Cc1cc(O)c2c3c(ccc2c1)C(=O)c1c(ccc([C@H]2C[C@@H](O)[C@H](O[C@H]4CC[C@@H](O)[C@H](C)O4)[C@@H](C)O2)c1O)C3=O [Compound 1, marangucycline A] | > 50 µM | > 50 µM | > 50 µM | > 50 µM | > 50 µM |  |  |  |  |  |  |  |  |  | 
Cc1cc(O)c2c3c(ccc2c1)C(=O)c1c(ccc(C2CC4OC5CC(=O)C(C)OC5OC4C(C)O2)c1O)C3=O (stereo not shown) [Compound 2, marangucycline B] | 0.43 ± 0.05 µM | 3.67 ± 0.07 µM | 0.45 ± 0.03 µM | 0.56 ± 0.02 µM | 0.24 ± 0.003 µM | 7–15 | 10–20 fold |  |  |  |  |  |  |  | IC50 ([6]; Homo sapiens, four cancer cell lines, read-out: IC50 values against cancer cell lines (range over the panel)): 0.24 to 0.56 µM
Cc1cc(O)c2c3c(ccc2c1)C(=O)c1c(ccc([C@H]2C[C@@H](O)[C@H](O)[C@@H](C)O2)c1O)C3=O [Compound 3, dehydroxyaquayamycin] | 18.81 ± 0.12 µM | 49.34 ± 0.17 µM | 16.4 ± 0.19 µM | 22.27 ± 0.07 µM | 23.65 ± 0.09 µM | 2–3 |  |  |  |  |  |  |  |  | MIC ([7]; MRSE shhs-E1, read-out: MIC): 16 µg/mL (≈ 36.8 µM)
CCCCCCCCCCCC1=N/C(=C\c2[nH]c(-c3ccc[nH]3)cc2OC)C=C1 [Compound 4, undecylprodigiosin] | 4.67 ± 0.09 µM | 12.47 ± 0.09 µM | 0.85 ± 0.01 µM | 0.28 ± 0.02 µM | 1.11 ± 0.07 µM | 3–45 | 1–10 fold | > 64 µg/mL | > 64 µg/mL | > 64 µg/mL | > 64 µg/mL | > 64 µg/mL | > 64 µg/mL | > 64 µg/mL | 
CCC1CCCCCCCCC2=N/C(=C\c3[nH]c(-c4ccc[nH]4)cc3OC)C1=C2 (stereo not shown) [Compound 5, metacycloprodigiosin] |  |  |  |  |  |  |  | > 64 µg/mL | > 64 µg/mL | > 64 µg/mL | > 64 µg/mL | > 64 µg/mL | > 64 µg/mL | > 64 µg/mL | IC50 ([1]; HepG2, read-out: in vitro cytotoxicity IC50, HepG2): > 50 µM; IC50 [2]: > 50 µM; IC50 ([3]; A549, read-out: in vitro cytotoxicity IC50, A549): > 50 µM; IC50 ([4]; CNE-2, read-out: in vitro cytotoxicity IC50, CNE2): > 50 µM; IC50 ([5]; MCF7, read-out: in vitro cytotoxicity IC50, MCF-7): > 50 µM
